Data: PubChem BioAssay AID250 (DTP/NCI, 2004)
Values joined by “and” are separate entries in the source; they are usually repeats but may differ in a detail not shown here. Equal entries are not always repeated. Inconclusive results and toxic doses are left out. Square brackets hold non-standard residues; d marks the D form. Peptide text beside a SMILES is read from it. Ac5c = NC1(C(=O)O)CCCC1

Tested on: BDF1 mice, L1210 leukemia sc, survival T/C
Assay: NCI In Vivo Anticancer Drug Screen. Data for tumor model L1210 Leukemia (subcutaneous) in B6D2F1 (BDF1) mice
Conditions: endpoint: median survival time, higher = longer survival
Procedure, shortened: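 Mice carrying transplanted tumors received test compounds, and survival or tumor size was measured. Values are the treated-group measurement (T) divided by that of the vehicle-treated control group (C).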

[1] = dose: 3.0 mg/kg/injection, schedule: Q01DX Z (sc), vehicle: saline
[2] = dose: 8.4 mg/kg/injection, schedule: Q01DX Z (sc), vehicle: saline
[3] = dose: 14.0 mg/kg/injection, schedule: Q01DX Z (sc), vehicle: saline
[4] = dose: 23.0 mg/kg/injection, schedule: Q01DX Z (sc), vehicle: saline

## CCN1C=C/C(=C\C=C/c2cc[n+](CC)c3ccccc23)c2ccccc21
dose: 0.05 mg/kg/injection, schedule: Q01DX Z (sc), vehicle: methylcellulose (MC)
  T/C: 100 % of control
dose: 0.08 mg/kg/injection, schedule: Q01DX Z (sc), vehicle: methylcellulose (MC)
  T/C: 100 % of control
dose: 0.14 mg/kg/injection, schedule: Q01DX Z (sc), vehicle: methylcellulose (MC)
  T/C: 100 % of control
dose: 0.23 mg/kg/injection, schedule: Q01DX Z (sc), vehicle: methylcellulose (MC)
  T/C: 100 % of control
dose: 0.39 mg/kg/injection, schedule: Q01DX Z (sc), vehicle: methylcellulose (MC)
  T/C: 100 % of control
dose: 0.65 mg/kg/injection, schedule: Q01DX Z (sc), vehicle: methylcellulose (MC)
  T/C: 100 % of control
dose: 1.08 mg/kg/injection, schedule: Q01DX Z (sc), vehicle: methylcellulose (MC)
  T/C: 100 % of control
dose: 1.8 mg/kg/injection, schedule: Q01DX Z (sc), vehicle: methylcellulose (MC)
  T/C: 111 % of control
dose: 3.0 mg/kg/injection, schedule: Q01DX Z (sc), vehicle: methylcellulose (MC)
  T/C: 105 % of control

## CCOC(=O)CCC(NC(=O)N(CCCl)CCCl)C(=O)OCC (stereo not drawn)
dose: 65.0 mg/kg/injection, schedule: Q01DX Z (sc), vehicle: water
  T/C: 106 % of control
dose: 108.0 mg/kg/injection, schedule: Q01DX Z (sc), vehicle: water
  T/C: 112 % of control
dose: 180.0 mg/kg/injection, schedule: Q01DX Z (sc), vehicle: water
  T/C: 100 % of control
dose: 300.0 mg/kg/injection, schedule: Q01DX Z (sc), vehicle: water
  T/C: 100 % of control
dose: 500.0 mg/kg/injection, schedule: Q01DX Z (sc), vehicle: water
  T/C: 112 % of control

## O=C(Nc1ccc(C2=NCCN2)cc1)c1ccc(C(=O)Nc2ccc(C3=NCCN3)cc2)c([N+](=O)[O-])c1
[1]
  T/C: 100 % of control
dose: 5.0 mg/kg/injection, schedule: Q01DX Z (sc), vehicle: saline
  T/C: 109 % of control
[2]
  T/C: 104 % of control and 109 % of control
[3]
  T/C: 104 % of control
dose: 23.0 mg/kg/injection, schedule: Q01DX Z (ip), vehicle: water
  T/C: 100 % of control
[4]
  T/C: 118 % of control
dose: 23.0 mg/kg/injection, schedule: Q01DX Z (sc), vehicle: water
  T/C: 100 % of control
dose: 39.0 mg/kg/injection, schedule: Q01DX Z (ip), vehicle: water
  T/C: 160 % of control
dose: 39.0 mg/kg/injection, schedule: Q01DX Z (sc), vehicle: water
  T/C: 115 % of control
dose: 65.0 mg/kg/injection, schedule: Q01DX Z (ip), vehicle: water
  T/C: 180 % of control
dose: 65.0 mg/kg/injection, schedule: Q01DX Z (sc), vehicle: saline
  T/C: 114 % of control and 209 % of control

## CO[C@@]12[C@H](COC(N)=O)C3=C(C(=O)C(C)=C(N)C3=O)N1C[C@@H]1N[C@@H]12
dose: 0.1 mg/kg/injection, schedule: Q01DX Z (sc), vehicle: saline
  T/C: 95 % of control
dose: 0.17 mg/kg/injection, schedule: Q01DX Z (sc), vehicle: saline
  T/C: 100 % of control
dose: 0.28 mg/kg/injection, schedule: Q01DX Z (sc), vehicle: saline
  T/C: 100 % of control
dose: 0.47 mg/kg/injection, schedule: Q01DX Z (sc), vehicle: saline
  T/C: 91 % of control
dose: 0.79 mg/kg/injection, schedule: Q01DX Z (sc), vehicle: saline
  T/C: 100 % of control
dose: 1.0 mg/kg/injection, schedule: Q01DX009 (ip), vehicle: water
  T/C: 110 % of control
dose: 1.0 mg/kg/injection, schedule: Q01DX009 (sc), vehicle: water
  T/C: 101 % of control
dose: 1.08 mg/kg/injection, schedule: Q01DX Z (sc), vehicle: saline
  T/C: 100 % of control
dose: 1.3 mg/kg/injection, schedule: Q01DX Z (sc), vehicle: other
  T/C: 104 % of control
dose: 1.3 mg/kg/injection, schedule: Q01DX Z (sc), vehicle: saline
  T/C: 104 % of control
dose: 1.31 mg/kg/injection, schedule: Q01DX Z (sc), vehicle: saline
  T/C: 95 % of control
dose: 1.8 mg/kg/injection, schedule: Q01DX Z (sc), vehicle: saline
  T/C: 100 % of control
dose: 1.8 mg/kg/injection, schedule: Q02DX Z (sc), vehicle: saline
  T/C: 100 % of control
dose: 2.0 mg/kg/injection, schedule: Q01DX009 (ip), vehicle: water
  T/C: 110 % of control
dose: 2.0 mg/kg/injection, schedule: Q01DX009 (sc), vehicle: water
  T/C: 110 % of control and 118 % of control
dose: 2.16 mg/kg/injection, schedule: Q01DX Z (sc), vehicle: other
  T/C: 100 % of control
dose: 2.16 mg/kg/injection, schedule: Q01DX Z (sc), vehicle: saline
  T/C: 109 % of control
dose: 2.18 mg/kg/injection, schedule: Q01DX Z (sc), vehicle: saline
  T/C: 100 % of control
[1]
  T/C: 109 % of control
dose: 3.0 mg/kg/injection, schedule: Q02DX Z (sc), vehicle: saline
  T/C: 109 % of control
dose: 3.0 mg/kg/injection, schedule: Q## X Z (sc), vehicle: saline
  T/C: 104 % of control
dose: 3.6 mg/kg/injection, schedule: Q01DX Z (sc), vehicle: other
  T/C: 109 % of control
dose: 3.6 mg/kg/injection, schedule: Q01DX Z (sc), vehicle: saline
  T/C: 113 % of control
dose: 4.0 mg/kg/injection, schedule: Q01DX009 (ip), vehicle: water
  T/C: 92 % of control
dose: 4.0 mg/kg/injection, schedule: Q01DX009 (sc), vehicle: water
  T/C: 98 % of control and 121 % of control
dose: 5.0 mg/kg/injection, schedule: Q01DX001 (sc), vehicle: saline
  T/C: 109 % of control
dose: 5.0 mg/kg/injection, schedule: Q02DX Z (sc), vehicle: saline
  T/C: 118 % of control
dose: 5.0 mg/kg/injection, schedule: Q## X Z (sc), vehicle: saline
  T/C: 109 % of control
dose: 6.0 mg/kg/injection, schedule: Q01DX Z (sc), vehicle: other
  T/C: 113 % of control
dose: 6.0 mg/kg/injection, schedule: Q01DX Z (sc), vehicle: saline
  T/C: 118 % of control
dose: 6.06 mg/kg/injection, schedule: Q01DX Z (sc), vehicle: saline
  T/C: 116 % of control
dose: 8.0 mg/kg/injection, schedule: Q01DX009 (sc), vehicle: water
  T/C: 108 % of control
dose: 8.4 mg/kg/injection, schedule: Q01DX001 (sc), vehicle: saline
  T/C: 113 % of control
[2]
  T/C: 118 % of control
dose: 8.4 mg/kg/injection, schedule: Q## X Z (sc), vehicle: saline
  T/C: 122 % of control
dose: 10.0 mg/kg/injection, schedule: Q01DX Z (sc), vehicle: other
  T/C: 109 % of control
dose: 10.0 mg/kg/injection, schedule: Q01DX Z (sc), vehicle: saline
  T/C: 100 % of control
[3]
  T/C: 109 % of control
dose: 14.0 mg/kg/injection, schedule: Q02DX Z (sc), vehicle: saline
  T/C: 118 % of control
dose: 16.0 mg/kg/injection, schedule: Q01DX009 (sc), vehicle: water
  T/C: 97 % of control
dose: 23.0 mg/kg/injection, schedule: Q01DX001 (sc), vehicle: saline
  T/C: 118 % of control
[4]
  T/C: 109 % of control
dose: 23.0 mg/kg/injection, schedule: Q02DX Z (sc), vehicle: saline
  T/C: 118 % of control
dose: 23.0 mg/kg/injection, schedule: Q## X Z (sc), vehicle: saline
  T/C: 118 % of control
dose: 39.0 mg/kg/injection, schedule: Q01DX001 (sc), vehicle: saline
  T/C: 118 % of control
dose: 39.0 mg/kg/injection, schedule: Q02DX Z (sc), vehicle: saline
  T/C: 122 % of control
dose: 39.0 mg/kg/injection, schedule: Q## X Z (sc), vehicle: saline
  T/C: 118 % of control
dose: 65.0 mg/kg/injection, schedule: Q01DX001 (sc), vehicle: saline
  T/C: 109 % of control

## NCC(=O)NC1(C(=O)O)CCCC1 (H-Gly-[Ac5c]-OH)
dose: 55.0 mg/kg/injection, schedule: Q01DX Z (sc), vehicle: water
  T/C: 105 % of control
dose: 91.0 mg/kg/injection, schedule: Q01DX Z (sc), vehicle: water
  T/C: 105 % of control
dose: 152.0 mg/kg/injection, schedule: Q01DX Z (sc), vehicle: water
  T/C: 105 % of control
dose: 253.0 mg/kg/injection, schedule: Q01DX Z (sc), vehicle: water
  T/C: 157 % of control

## CN(C)[C@@H]1C(=O)C(C(=O)NCc2nc3[nH]cnc(=S)c3[nH]2)=C(O)[C@@]2(O)C(=O)C3=C(O)c4c(O)cccc4[C@@](C)(O)[C@H]3C[C@@H]12
dose: 65.0 mg/kg/injection, schedule: Q01DX Z (sc), vehicle: methylcellulose (MC)
  T/C: 100 % of control
dose: 108.0 mg/kg/injection, schedule: Q01DX Z (sc), vehicle: methylcellulose (MC)
  T/C: 100 % of control
dose: 180.0 mg/kg/injection, schedule: Q01DX Z (sc), vehicle: methylcellulose (MC)
  T/C: 100 % of control
dose: 300.0 mg/kg/injection, schedule: Q01DX Z (sc), vehicle: methylcellulose (MC)
  T/C: 105 % of control
dose: 500.0 mg/kg/injection, schedule: Q01DX Z (sc), vehicle: methylcellulose (MC)
  T/C: 175 % of control

## O=C(O)c1ccc([N+](=O)[O-])cc1
dose: 23.0 mg/kg/injection, schedule: Q01DX Z (sc), vehicle: methylcellulose (MC)
  T/C: 104 % of control
